# Assay results taken from patent publication US20260176267A1, “PREPARATION OF IMIDAZOPYRIDINE AND IMIDAZOPYRIDAZINE DERIVATIVES AS NOVEL DIACYLGLYCERIDE O-ACYLTRANSFERASE 2 INHIBITORS” (Merck Sharp & Dohme LLC, priority 2022, published 2026).
# Molecular target: T1, human DGAT2 (hDGAT2) (Homo sapiens, UniProt Q96PD7)
# T1 construct: made in house; host or cells: Sf-9 insect cells (baculovirus), membrane fraction
# T1 sequence (Q96PD7 1-388): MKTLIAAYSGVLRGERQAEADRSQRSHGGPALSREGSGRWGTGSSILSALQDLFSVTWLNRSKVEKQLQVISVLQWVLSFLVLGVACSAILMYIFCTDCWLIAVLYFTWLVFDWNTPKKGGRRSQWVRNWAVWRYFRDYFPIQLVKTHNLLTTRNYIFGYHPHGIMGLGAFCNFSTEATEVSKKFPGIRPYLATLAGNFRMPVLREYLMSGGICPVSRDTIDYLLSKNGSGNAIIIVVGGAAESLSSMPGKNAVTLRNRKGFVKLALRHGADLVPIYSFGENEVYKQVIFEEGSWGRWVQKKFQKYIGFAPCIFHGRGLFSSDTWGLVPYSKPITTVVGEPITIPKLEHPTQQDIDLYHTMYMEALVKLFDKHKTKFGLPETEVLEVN
# Experiment: DGAT2 Enzymatic Activity Assay
# Format: biochemical
# Details: membrane prep of Sf-9 cells expressing hDGAT2; 13C18-triolein product by LC/MS/MS; 25 μM diolein, 5 μM 13C oleoyl-CoA, rt
# Outline: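 At room temperature, DGAT2 activity in baculovirus-infected Sf-9 membrane preps (human enzyme, untagged) is measured as formation of ^13C18-triolein. Product is extracted and measured by positive-mode LC/MS/MS, with the ratio to spiked ^13C21-triolein giving inhibition and IC50.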
row,Compound,IC50 [nM]
1,"Cc1c(C(=O)NC2(C)CCS(=O)(=O)CC2)nc2ccc(Oc3ncc(C4CC4)cc3OCC(F)(F)F)cn12 [Example 145, 6-[[5-cyclopropyl-3-(2,2,2-trifluoroethoxy)-2-pyridyl]oxy]-3-methyl-N-(4-methyl-1,1-dioxo-thian-4-yl)imidazo[1,2-a]pyridine-2-carboxamide]",133
2,"Cc1c(C(=O)NC2(C)CCS(=O)(=O)CC2)nc2ccc(Oc3ncc(C(C)(C)O)cc3OCC(F)(F)F)cn12 [Example 146, 6-[[5-(1-hydroxy-1-methyl-ethyl)-3-(2,2,2-trifluoroethoxy)-2-pyridyl]oxy]-3-methyl-N-(4-methyl-1,1-dioxo-thian-4-yl)imidazo[1,2-a]pyridine-2-carboxamide]",102
3,"Cc1c(C(=O)NC2(C)CCS(=O)(=O)CC2)nc2ccc(Oc3ncc(C(C)(C)F)cc3OCC(F)(F)F)cn12 [Example 147, 6-[[5-(1-fluoro-1-methyl-ethyl)-3-(2,2,2-trifluoroethoxy)-2-pyridyl]oxy]-3-methyl-N-(4-methyl-1,1-dioxo-thian-4-yl)imidazo[1,2-a]pyridine-2-carboxamide]",41
4,"Cc1c(C(=O)NC2(C)CCS(=O)(=O)CC2)nc2ccc(Oc3ncc(O)cc3OCC(F)(F)F)cn12 [Example 148, 6-[[5-hydroxy-3-(2,2,2-trifluoroethoxy)-2-pyridyl]oxy]-3-methyl-N-(4-methyl-1,1-dioxo-thian-4-yl)imidazo[1,2-a]pyridine-2-carboxamide]",80
5,"Cc1c(C(=O)NC2(C)CCS(=O)(=O)CC2)nc2ccc(Oc3ncc(S(C)(=O)=O)cc3OCC(F)(F)F)cn12 [Example 150, 3-methyl-N-(4-methyl-1,1-dioxo-thian-4-yl)-6-[[5-methylsulfonyl-3-(2,2,2-trifluoroethoxy)-2-pyridyl]oxy]imidazo[1,2-a]pyridine-2-carboxamide]",58
6,"Cc1c(C(=O)NC2(C)CCS(=O)(=O)CC2)nc2ccc(Oc3ncc(C(=O)O)cc3OCC(F)(F)F)cn12 [Example 151, 6-[3-methyl-2-[(4-methyl-1,1-dioxo-thian-4-yl)carbamoyl]imidazo[1,2-a]pyridine-6-yl]oxy-5-(2,2,2-trifluoroethoxy)pyridine-3-carboxylic acid]",> 9990
7,"Cc1c(C(=O)NC2(C)CS(=O)(=O)C2)nc2ccc(Oc3ncc(N(C)C)cc3OCC(F)(F)F)cn12 [Example 152, 6-[5-(dimethylamino)-3-(2,2,2-trifluoroethoxy)pyridine-2-yl]oxy-3-methyl-N-(3-methyl-1,1-dioxo-thietan-3-yl)imidazo[1,2-a]pyridin-1-ium-2-carboxamide]",63
8,"CC(F)(F)COc1cc(Cl)cnc1Oc1ccc2nc(C(=O)NC3(C)CCS(=O)(=O)CC3)cn2n1 [Example 154, 6-[[5-Chloro-3-(2,2-difluoropropoxy)-2-pyridyl]oxy]-N-(4-methyl-1,1-dioxo-thian-4-yl)imidazo[1,2-b]pyridazine-2-carboxamide]",154
9,"CC1(NC(=O)c2cn3nc(Oc4ncc(F)cc4OCC4(F)CC4)ccc3n2)CCS(=O)(=O)CC1 [Example 155, 6-[[5-Fluoro-3-[(1-fluorocyclopropyl)methoxy]-2-pyridyl]oxy]-N-(4-methyl-1,1-dioxo-thian-4-yl)imidazo[1,2-b]pyridazine-2-carboxamide]",186
10,"CC(F)(F)COc1cc(F)cnc1Oc1ccc2nc(C(=O)NC3(C)CCS(=O)(=O)CC3)cn2n1 [Example 156, 6-[[3-(2,2-Difluoropropoxy)-5-fluoro-2-pyridyl]oxy]-N-(4-methyl-1,1-dioxo-thian-4-yl)imidazo[1,2-b]pyridazine-2-carboxamide]",988
11,"CC1(NC(=O)c2cn3nc(Oc4ncc(F)cc4OC4CCC4)ccc3n2)CCS(=O)(=O)CC1 [Example 158, 6-[[3-(Cyclobutoxy)-5-fluoro-2-pyridyl]oxy]-N-(4-methyl-1,1-dioxo-thian-4-yl)imidazo[1,2-b]pyridazine-2-carboxamide]",590
12,"CC1(NC(=O)c2cn3nc(Oc4ncc(Cl)cc4OCC(F)(F)F)ccc3n2)CCS(=O)(=O)CC1 [Example 159, 6-[[5-Chloro-3-(2,2,2-trifluoroethoxy)-2-pyridyl]oxy]-N-(4-methyl-1,1-dioxo-thian-4-yl)imidazo[1,2-b]pyridazine-2-carboxamide]",211
13,"CC1(NC(=O)c2cn3nc(Oc4ncc(Cl)cc4OCC(F)(F)F)ccc3n2)CS(=O)(=O)C1 [Example 162, 6-[[5-chloro-3-(2,2,2-trifluoroethoxy)-2-pyridyl]oxy]-N-(3-methyl-1,1-dioxo-thietan-3-yl)imidazo[1,2-b]pyridazine-2-carboxamide]",474
14,"CS(=O)(=O)CC1(NC(=O)c2cn3nc(Oc4ncc(Cl)cc4OCC(F)F)ccc3n2)CCC1 [Example 163, 6-[[5-Chloro-3-(2,2-difluoroethoxy)-2-pyridyl]oxy]-N-[1-(methylsulfonylmethyl)cyclobutyl] imidazo[1,2-b]pyridazine-2-carboxamide]",207
15,"CC1(NC(=O)c2cn3nc(Oc4nccnc4OCC(F)(F)F)ccc3n2)CCS(=O)(=O)CC1 [Example 165, N-(4-Methyl-1,1-dioxo-thian-4-yl)-6-[3-(2,2,2-trifluoroethoxy)pyrazin-2-yl]oxy-imidazo[1,2-b]pyridazine-2-carboxamide]",901

# The next compounds have a lower IC50 than those just listed; values first:
row,IC50 [nM],Compound
1,2.1,"CC1(NC(=O)c2nc3ccc(Oc4ncc(F)cc4OCC(F)(F)F)c(Cl)n3c2Cl)CS(=O)(=O)C1 [Example 140, 3,5-dichloro-6-[[5-fluoro-3-(2,2,2-trifluoroethoxy)-2-pyridyl]oxy]-N-(3-methyl-1,1-dioxo-thietan-3-yl)imidazo[1,2-a]pyridine-2-carboxamide]"
2,2.6,"Cc1c(Oc2ncc(Cl)cc2OCC(F)(F)F)ccc2nc(C(=O)NC3(C)CCS(=O)(=O)CC3)c(Cl)n12 [Example 141, 3-chloro-6-[[5-chloro-3-(2,2,2-trifluoroethoxy)-2-pyridyl]oxy]-5-methyl-N-(4-methyl-1,1-dioxo-thian-4-yl)imidazo[1,2-a]pyridine-2-carboxamide]"
3,3.5,"Cc1c(Oc2ncc(Cl)cc2OCC(F)(F)F)ccc2nc(C(=O)NC3(C)CCS(=O)(=O)CC3)c(F)n12 [Example 142, 6-[[5-chloro-3-(2,2,2-trifluoroethoxy)-2-pyridyl]oxy]-3-fluoro-5-methyl-N-(4-methyl-1,1-dioxo-thian-4-yl)imidazo[1,2-a]pyridine-2-carboxamide]"
4,37,"Cc1c(Oc2ncc(Cl)cc2OCC(C)(F)F)ccc2nc(C(=O)NC3(C)CCS(=O)(=O)CC3)c(F)n12 [Example 143, 6-[[5-chloro-3-(2,2-difluoropropoxy)-2-pyridyl]oxy]-3-fluoro-5-methyl-N-(4-methyl-1,1-dioxo-thian-4-yl)imidazo[1,2-a]pyridine-2-carboxamide]"
5,8.9,"Cc1cnc(Oc2ccc3nc(C(=O)NC4(C)CCS(=O)(=O)CC4)c(C)n3c2)c(OCC(F)(F)F)c1 [Example 144, 3-methyl-N-(4-methyl-1,1-dioxo-thian-4-yl)-6-[[5-methyl-3-(2,2,2-trifluoroethoxy)-2-pyridyl]oxy]imidazo[1,2-a]pyridine-2-carboxamide]"
6,33,"Cc1c(C(=O)NC2(C)CCS(=O)(=O)CC2)nc2ccc(Oc3ncc(C#N)cc3OCC(F)(F)F)cn12 [Example 149, 6-[[5-cyano-3-(2,2,2-trifluoroethoxy)-2-pyridyl]oxy]-3-methyl-N-(4-methyl-1,1-dioxo-thian-4-yl)imidazo[1,2-a]pyridine-2-carboxamide]"
7,3.2,"CC1(NC(=O)c2cn3nc(Oc4ncc(Cl)cc4OCC(F)F)ccc3n2)CCS(=O)(=O)CC1 [Example 153, 6-((5-Chloro-3-(2,2-difluoroethoxy)pyridin-2-yl)oxy)-N-(4-methyl-1,1-dioxidotetrahydro-2H-thiopyran-4-yl)imidazo[1,2-b]pyridazine-2-carboxamide]"
8,18,"CC1(NC(=O)c2cn3nc(Oc4ncc(F)cc4OCC4CC4)ccc3n2)CCS(=O)(=O)CC1 [Example 157, 6-[[3-(Cyclopropylmethoxy)-5-fluoro-2-pyridyl]oxy]-N-(4-methyl-1,1-dioxo-thian-4-yl)imidazo[1,2-b]pyridazine-2-carboxamide]"
9,3.9,"CC1(NC(=O)c2cn3nc(Oc4ncc(F)cc4OCC(F)F)ccc3n2)CCS(=O)(=O)CC1 [Example 160, 6-[[3-(2,2-Difluoroethoxy)-5-fluoro-2-pyridyl]oxy]-N-(4-methyl-1,1-dioxo-thian-4-yl)imidazo[1,2-b]pyridazine-2-carboxamide]"
10,37,"O=C(N[C@H]1CCCC(F)(F)[C@@H]1O)c1cn2nc(Oc3ncc(Cl)cc3OCC(F)(F)F)ccc2n1 [Example 161, 6-((5-chloro-3-(2,2,2-trifluoroethoxy)pyridin-2-yl)oxy)-N-((1S,2R)-3,3-difluoro-2-hydroxycyclohexyl)imidazo[1,2-b]pyridazine-2-carboxamide]"
11,16,"CC1(NC(=O)c2cn3nc(Oc4ncc(F)cc4OCC(F)(F)F)ccc3n2)CCS(=O)(=O)CC1 [Example 164, 6-[[5-Fluoro-3-(2,2,2-trifluoroethoxy)-2-pyridyl]oxy]-N-(4-methyl-1,1-dioxo-thian-4-yl)imidazo[1,2-b]pyridazine-2-carboxamide]"
